{
  "source": "ChEMBL document CHEMBL4052742",
  "about": "“Optimization of 1H-indazol-3-amine derivatives as potent fibroblast growth factor receptor inhibitors” (Bioorg Med Chem Lett, 2017)",
  "key": {"[1]": {"molecular_target": "Fibroblast growth factor receptor 1 (Homo sapiens, UniProt P11362)", "sequence (P11362 whole entry)": "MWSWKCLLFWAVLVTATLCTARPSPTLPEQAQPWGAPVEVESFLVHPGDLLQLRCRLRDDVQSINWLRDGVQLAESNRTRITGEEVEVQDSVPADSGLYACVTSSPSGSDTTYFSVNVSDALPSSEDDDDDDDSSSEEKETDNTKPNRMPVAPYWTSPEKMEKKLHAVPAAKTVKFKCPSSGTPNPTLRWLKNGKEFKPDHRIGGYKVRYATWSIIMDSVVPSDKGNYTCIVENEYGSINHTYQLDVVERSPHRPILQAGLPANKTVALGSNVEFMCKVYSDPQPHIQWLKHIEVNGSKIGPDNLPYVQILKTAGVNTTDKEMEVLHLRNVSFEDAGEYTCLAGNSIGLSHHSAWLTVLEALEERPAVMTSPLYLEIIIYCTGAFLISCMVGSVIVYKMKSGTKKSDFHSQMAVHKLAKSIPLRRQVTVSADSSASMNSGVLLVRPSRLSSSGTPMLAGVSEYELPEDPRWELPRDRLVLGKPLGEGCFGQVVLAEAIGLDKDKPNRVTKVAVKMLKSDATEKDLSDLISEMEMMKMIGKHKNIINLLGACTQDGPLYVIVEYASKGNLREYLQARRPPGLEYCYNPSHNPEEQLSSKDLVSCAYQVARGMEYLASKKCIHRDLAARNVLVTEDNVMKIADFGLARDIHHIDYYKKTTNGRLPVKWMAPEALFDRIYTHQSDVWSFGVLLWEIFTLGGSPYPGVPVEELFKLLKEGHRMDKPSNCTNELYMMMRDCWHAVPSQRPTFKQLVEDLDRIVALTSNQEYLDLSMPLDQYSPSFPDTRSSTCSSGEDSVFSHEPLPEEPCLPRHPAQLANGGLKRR", "test": "Inhibition of recombinant FGFR1 (unknown origin) using poly (Glu,Tyr)4:1 as substrate after 60 mins by ELISA based spectrophotometric analysis"}, "KG-1": {"tested_on": "KG-1", "test": "Antiproliferative activity against human KG1 cells after 72 hrs by CCK-8 assay", "settings": "KG-1, 72 h"}, "[2]": {"molecular_target": "Fibroblast growth factor receptor 2 (Homo sapiens, UniProt P21802)", "sequence (P21802 whole entry)": "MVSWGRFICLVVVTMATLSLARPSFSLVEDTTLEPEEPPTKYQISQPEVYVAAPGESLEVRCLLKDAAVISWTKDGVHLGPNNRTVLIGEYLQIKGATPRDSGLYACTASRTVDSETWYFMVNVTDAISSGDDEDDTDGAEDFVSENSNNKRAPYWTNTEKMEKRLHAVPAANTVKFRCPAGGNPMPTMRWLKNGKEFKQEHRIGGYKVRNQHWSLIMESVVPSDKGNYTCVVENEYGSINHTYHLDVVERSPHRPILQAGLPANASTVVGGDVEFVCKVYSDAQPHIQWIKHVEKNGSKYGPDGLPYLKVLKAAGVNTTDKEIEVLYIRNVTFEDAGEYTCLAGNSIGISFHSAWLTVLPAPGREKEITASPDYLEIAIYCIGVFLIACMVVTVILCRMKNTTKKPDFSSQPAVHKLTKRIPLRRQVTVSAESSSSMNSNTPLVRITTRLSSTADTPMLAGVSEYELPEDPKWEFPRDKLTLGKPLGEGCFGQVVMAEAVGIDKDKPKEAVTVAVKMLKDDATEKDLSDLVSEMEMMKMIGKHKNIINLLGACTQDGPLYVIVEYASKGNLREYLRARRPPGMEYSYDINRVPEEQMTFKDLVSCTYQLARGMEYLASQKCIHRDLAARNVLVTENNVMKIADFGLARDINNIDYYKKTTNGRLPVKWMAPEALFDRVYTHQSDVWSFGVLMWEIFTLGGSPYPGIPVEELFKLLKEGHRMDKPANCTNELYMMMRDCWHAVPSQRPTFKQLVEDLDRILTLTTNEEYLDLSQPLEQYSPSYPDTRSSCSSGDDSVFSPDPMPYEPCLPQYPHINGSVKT", "test": "Inhibition of recombinant FGFR2 (unknown origin) using poly (Glu,Tyr)4:1 as substrate after 60 mins by ELISA based spectrophotometric analysis"}, "SNU-16": {"tested_on": "SNU-16", "test": "Antiproliferative activity against human SNU16 cells after 72 hrs by CCK-8 assay", "settings": "SNU-16, 72 h"}},
  "data": [
    {"smiles": "CCN1CCN(c2ccc(C(=O)Nc3n[nH]c4cc(-c5cccc(OC)c5F)ccc34)cc2C(F)(F)F)CC1", "values": [
      {"measurement": "IC50", "setting": "[1]", "result": "> 1000", "unit": "nM"},
      {"measurement": "IC50", "setting": "KG-1", "result": "> 1000", "unit": "nM"},
      {"measurement": "IC50", "setting": "[2]", "result": "> 1000", "unit": "nM"},
      {"measurement": "IC50", "setting": "SNU-16", "result": "> 1000", "unit": "nM"}
    ]},
    {"smiles": "CCN1CCN(c2ccc(C(=O)Nc3n[nH]c4cc(-c5c(F)cc(F)c(OC)c5F)ccc34)cc2)CC1", "values": [
      {"measurement": "IC50", "setting": "KG-1", "result": "> 1000", "unit": "nM"},
      {"measurement": "IC50", "setting": "SNU-16", "result": "> 1000", "unit": "nM"}
    ]},
    {"smiles": "CCN1CCN(c2ccc(C(=O)Nc3n[nH]c4cc(-c5cccc(OC)c5F)ccc34)cc2)CC1", "values": [
      {"measurement": "IC50", "setting": "KG-1", "result": 284, "unit": "nM"},
      {"measurement": "IC50", "setting": "SNU-16", "result": 591, "unit": "nM"}
    ]},
    {"smiles": "COCCN1CCN(c2ccc(C(=O)Nc3n[nH]c4cc(-c5c(F)ccc(OC)c5F)ccc34)cc2)CC1", "values": [
      {"measurement": "IC50", "setting": "KG-1", "result": 47.3, "unit": "nM"},
      {"measurement": "IC50", "setting": "SNU-16", "result": 431, "unit": "nM"}
    ]},
    {"smiles": "CCN1CCN(c2ccc(C(=O)Nc3n[nH]c4cc(-c5cccc(OC)c5F)c(F)cc34)cc2)CC1", "values": [
      {"measurement": "IC50", "setting": "KG-1", "result": 684, "unit": "nM"},
      {"measurement": "IC50", "setting": "SNU-16", "result": "> 1000", "unit": "nM"}
    ]},
    {"smiles": "COc1ccc(F)c(-c2ccc3c(NC(=O)c4ccc(N5C[C@@H](C)N[C@@H](C)C5)cc4)n[nH]c3c2)c1F", "values": [
      {"measurement": "IC50", "setting": "KG-1", "result": 348, "unit": "nM"},
      {"measurement": "IC50", "setting": "SNU-16", "result": 582, "unit": "nM"}
    ]},
    {"smiles": "COc1ccc(F)c(-c2ccc3c(NC(=O)c4ccc(N5CCCN(C)CC5)cc4)n[nH]c3c2)c1F", "values": [
      {"measurement": "IC50", "setting": "KG-1", "result": 51.5, "unit": "nM"},
      {"measurement": "IC50", "setting": "SNU-16", "result": 102, "unit": "nM"}
    ]},
    {"smiles": "COc1cccc(-c2ccc3c(NC(=O)c4ccc(N5CCN(C)CC5)c(F)c4)n[nH]c3c2)c1F", "values": [
      {"measurement": "IC50", "setting": "KG-1", "result": "> 1000", "unit": "nM"},
      {"measurement": "IC50", "setting": "SNU-16", "result": "> 1000", "unit": "nM"}
    ]},
    {"smiles": "COc1ccc(F)c(-c2ccc3c(NC(=O)c4ccc(N(C)CCN(C)C)cc4)n[nH]c3c2)c1F", "values": [
      {"measurement": "IC50", "setting": "KG-1", "result": 333, "unit": "nM"},
      {"measurement": "IC50", "setting": "SNU-16", "result": 366, "unit": "nM"}
    ]},
    {"smiles": "COc1cccc(-c2ccc3c(NC(=O)c4ccc(N5CCN(C)CC5)cc4F)n[nH]c3c2)c1F", "values": [
      {"measurement": "IC50", "setting": "[1]", "result": "> 1000", "unit": "nM"},
      {"measurement": "IC50", "setting": "KG-1", "result": "> 1000", "unit": "nM"},
      {"measurement": "IC50", "setting": "[2]", "result": "> 1000", "unit": "nM"},
      {"measurement": "IC50", "setting": "SNU-16", "result": "> 1000", "unit": "nM"}
    ]},
    {"smiles": "COc1ccc(F)c(-c2ccc3c(NC(=O)c4ccc(N5CCN(C)CC5)cc4)n[nH]c3c2)c1F", "values": [
      {"measurement": "IC50", "setting": "KG-1", "result": 41.5, "unit": "nM"},
      {"measurement": "IC50", "setting": "[2]", "result": "< 4.1", "unit": "nM"},
      {"measurement": "IC50", "setting": "SNU-16", "result": 35.6, "unit": "nM"}
    ]},
    {"smiles": "COCCN1CCN(c2ccc(C(=O)Nc3n[nH]c4cc(-c5c(F)cc(F)c(OC)c5F)ccc34)cc2)CC1", "values": [
      {"measurement": "IC50", "setting": "KG-1", "result": "> 1000", "unit": "nM"},
      {"measurement": "IC50", "setting": "SNU-16", "result": "> 1000", "unit": "nM"}
    ]},
    {"smiles": "COc1ccc(F)c(-c2ccc3c(NC(=O)c4ccc(N5CCN(C(C)=O)CC5)cc4)n[nH]c3c2)c1F", "values": [
      {"measurement": "IC50", "setting": "KG-1", "result": 595, "unit": "nM"},
      {"measurement": "IC50", "setting": "[2]", "result": 2.9, "unit": "nM"},
      {"measurement": "IC50", "setting": "SNU-16", "result": 322, "unit": "nM"}
    ]},
    {"smiles": "CCN1CCN(c2ccc(C(=O)Nc3n[nH]c4cc(-c5cccc(OC)c5F)cc(F)c34)cc2)CC1", "values": [
      {"measurement": "IC50", "setting": "KG-1", "result": "> 1000", "unit": "nM"},
      {"measurement": "IC50", "setting": "SNU-16", "result": "> 1000", "unit": "nM"}
    ]},
    {"smiles": "CCN1CCN(c2ccc(C(=O)Nc3n[nH]c4cc(-c5c(F)ccc(OC)c5F)ccc34)cc2)CC1", "values": [
      {"measurement": "IC50", "setting": "[1]", "result": "< 4.1", "unit": "nM"},
      {"measurement": "IC50", "setting": "KG-1", "result": 25.3, "unit": "nM"},
      {"measurement": "IC50", "setting": "SNU-16", "result": 77.4, "unit": "nM"}
    ]},
    {"smiles": "COc1cc(CCc2cc(NC(=O)c3ccc(N4C[C@@H](C)N[C@@H](C)C4)cc3)n[nH]2)cc(OC)c1", "note": "[FEXAGRATINIB]", "values": [
      {"measurement": "IC50", "setting": "KG-1", "result": 3.3, "unit": "nM"},
      {"measurement": "IC50", "setting": "SNU-16", "result": 3.4, "unit": "nM"}
    ]}
  ]
}
